Measurements taken from patent publication US7772255B2, “Method of treating tumors with azaxanthones” (Supratek Pharma, Inc., priority 2005, dated 2010).

Legend:
[1] = test system: metastatic (Stage III-IV) breast cancer; assay: Amlexanox in women with metastatic breast cancer whose primary tumors are removed surgically (Example 7); format: in vivo, human; details: 500 mg orally twice a day; baseline until nine months after administration and follow-up
Description: In this study, 44 women with metastatic (Stage III-IV) breast cancer whose primary tumors are removed surgically are treated by orally administering 500 mg amlexanox twice a day. The total dose, per patient, is 1,000 mg daily. Baseline assessments are performed at the start of the treatment (treated group) and these baseline results are compared with repeat assessments during various follow-up periods of this treatment. The treatment is conducted for at least ten consecutive days and it is continued further until substantial progression of the disease is noted. The study, which includes treatment of all patients and their follow-up, lasts for at least nine months or until disease progression in the last patient with responding or stable disease. […] In carrying out this study, the response rate and one year survival data for each of the patients in the treated group is determined and compared with an untreated group. […] If there is a delay of the substantial progression of the disease, then treatment is stopped when it is determined that substantial progression of the disease in that patient resumes. […] One week after the first administration of amlexanox, patients are clinically evaluated (adverse event review, concomitant medication and concurrent illness) and the following laboratory evaluations are conducted: hematology, blood chemistry and urinalysis. […]

[2] = test system: S100A4-positive CSML100 cells; assay: Metastasis formation by S100A4-positive CSML100 cells in animal model (Example 6); format: in vivo, mouse; details: 100 mg/kg i.v. daily for 10 days
Description: In both groups the injection volume was 5 ml/kg. The treatments were started from the day following the tumor cell implantation for 10 consecutive days. The animal body weight was recorded as an index of treatment toxicity during the experiment.
Starting from the day 10 after the cell implantation, one animal of the control group was sacrificed every day to monitor the metastasis development. All animals were sacrificed on day 18 for routine metastasis inspection. […] The metastatic colonies on the organ surface were enumerated immediately following the removal of the organ.
The data were expressed as mean±SEM for the number of metastatic sites.

CC(C)c1ccc2oc3nc(N)c(C(=O)O)cc3c(=O)c2c1 [Amlexanox, 2-amino-7-isopropyl-1-azaxanthone-3-carboxylic acid]
percentage of patients with little or no progression of the disease, compared to the non-treated group [1]: greater percentage of the patients in the group of patients treated with the amlexanox show little or no progression of the disease
Average of lung metastasis number per animal ([2]; CSML100 cells i.v. in female A/J mice, day 18, mean±SEM): 18.8 ± 2.3
Trial/control × 100% ([2]; lung metastasis number, day 18): 48.5%
inhibition on metastases formation ([2]; mice inoculated CSML100 cells): significant inhibition on metastases formation
body weight loss ([2]; non-significant, A/J mice): less than 10%
